Source: article PMC10478077 (Journal of medicinal chemistry, 2019)

Columns and labels:
Mtb fumarase = Mtb fumarase (Mycobacterium tuberculosis, UniProt P9WN93); assay: Biochemical assay of Mtb fumarase enzymatic activity; conditions: for Inhibition (%) at 50 μM: 50 μM ligand concentration
Mtb = conditions: cited from earlier work
[1] = tested on: H37Rv Mycobacterium tuberculosis; assay: Antimicrobial susceptibility testing; type: cell-based; conditions: for bactericidal activity: H37Rv Mtb

Sequence of Mtb fumarase (P9WN93 whole entry): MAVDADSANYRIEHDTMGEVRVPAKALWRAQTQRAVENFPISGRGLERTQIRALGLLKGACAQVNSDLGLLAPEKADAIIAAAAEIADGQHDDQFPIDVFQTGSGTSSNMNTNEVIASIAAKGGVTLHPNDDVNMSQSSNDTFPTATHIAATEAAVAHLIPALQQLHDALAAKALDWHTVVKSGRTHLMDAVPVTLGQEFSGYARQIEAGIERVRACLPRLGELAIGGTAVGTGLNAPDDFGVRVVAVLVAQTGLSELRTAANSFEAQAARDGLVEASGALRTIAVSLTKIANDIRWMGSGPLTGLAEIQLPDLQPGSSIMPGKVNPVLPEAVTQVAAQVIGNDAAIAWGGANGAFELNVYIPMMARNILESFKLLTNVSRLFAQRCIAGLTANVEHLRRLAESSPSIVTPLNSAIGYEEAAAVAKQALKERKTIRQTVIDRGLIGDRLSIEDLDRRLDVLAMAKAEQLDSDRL

COc1ccc(S(=O)(=O)N2CCCCCC2)cc1NC(=O)Cn1cnc2ccccc21 [Compound 15f, N-(5-(Azepan-1-ylsulfonyl)-2-methoxyphenyl)-2-(1H-benzo[d]imidazol-1-yl)acetamide]
Inhibition (%) at 50 μM (Mtb fumarase): failed to provide inhibition

COc1ccc(S(=O)(=O)N2CCCCCC2)cc1NC(=O)Cc1ccncc1 [Compound 15i, N-(5-(Azepan-1-ylsulfonyl)-2-methoxyphenyl)-2-(pyridin-4-yl)acetamide]
Inhibition (%) at 50 μM (Mtb fumarase): eliminated inhibitory activity

COc1ccc(S(=O)(=O)N2CCc3ccccc3CC2)cc1NC(=O)Cc1n[nH]c(=O)c2ccccc12 [Compound 16l, N-(2-Methoxy-5-((1,2,4,5-tetrahydro-3H-benzo[d]azepin-3-yl)sulfonyl)phenyl)-2-(4-oxo-3,4-dihydrophthalazin-1-yl)acetamide]
IC50 fold lower than that of 1 (Mtb fumarase; relative to 1 (IC50 2.0 μM)): 3 fold

COc1ccc(S(=O)(=O)N2CCCCCC2)cc1NC(=O)Cc1nnc(O)c2ccccc12 [Compound 1, N-(5-(Azepan-1-ylsulfonyl)-2-methoxyphenyl)-2-(4-oxo-3,4-dihydrophthalazin-1-yl)acetamide]
bactericidal properties (Mtb): did not exhibit bactericidal properties
bactericidal activity [1]: no bactericidal activity

COc1ccc(S(=O)(=O)N2CCCCCC2)cc1NC(=O)Cc1noc2ccccc12 [Compound 15e, N-(5-(Azepan-1-ylsulfonyl)-2-methoxyphenyl)-2-(benzo[d]isoxazol-3-yl)acetamide]
Inhibition (%) at 50 μM (Mtb fumarase): failed to provide inhibition

COc1ccc(S(=O)(=O)N2CCCCCC2)cc1NC(=O)Cc1coc2ccccc12 [Compound 15d, N-(5-(Azepan-1-ylsulfonyl)-2-methoxyphenyl)-2-(benzofuran-3-yl)acetamide]
Inhibition (%) at 50 μM (Mtb fumarase): failed to provide inhibition

COc1ccc(S(=O)(=O)N2CCCCCCC2)cc1NC(=O)Cc1n[nH]c(=O)c2ccccc12 [Compound 16b, N-(5-(Azocan-1-ylsulfonyl)-2-methoxyphenyl)-2-(4-oxo-3,4-dihydrophthalazin-1-yl)acetamide]
H37Rv Mtb MIC ([1]; 7H9/DPPC medium): highly active
bactericidal activity [1]: activity was observed
